Test results as given in patent US20080317723A1, “LYMPHATIC ENDOTHELIAL CELLS MATERIALS AND METHODS” (VEGENICS LIMITED, priority 2001, published 2008).

Assays:
Type in all cases: cell-based, human
[1] = system: VEGFR-2/EpoR; assay: Ba/F3 bioassay, viability (MTT) of VEGFR-2/EpoR cells; details: FIG. 1B
Procedure: FIG. 1A-FIG. 1C. Analysis of the receptor-specificities of different VEGFs using the Ba/F3 bioassay. Measurement of the viability of Ba/F3 cells expressing the chimeric receptors VEGFR-1/EpoR (FIG. 1A), VEGFR-2/EpoR (FIG. 1B) or VEGFR-3/EpoR (FIG. 1C) in the presence of different VEGFs at indicated concentrations. Cell viability was determined using the MTT assay. Data represent the mean values from triplicate assays (mean±s.d.). FIG. 1D-FIG. 1G. Biosensor analysis of the interaction of VEGF-C (FIG. 1D, FIG. 1E) and VEGF-C156S (FIG. 1F, FIG. 1G) with VEGFR-3 (FIG. 1D, FIG. 1F) and VEGFR-2 (FIG. 1E, FIG. 1G). Chimeric receptor proteins were immobilized onto a carboxymethylated dextran surface. Growth factors were injected over the surface at a flow rate of 20 μl/min at the indicated concentrations. The sensorgrams shown have been subtracted with the corresponding signal obtained when the same sample was passed over a blank control channel.
Bioassay for VEGFR stimulation. […]
VEGF is an endothelial cell mitogen which has been also shown to protect endothelial cells from starvation and TNF-a induced apoptosis via activation of VEGFR-2 (Gerber et al, J. Biol. Chem., 273:30336-30343, 1998; Spyridopoulos et al., J. Mol. Cell. Cardiol., 29:1321-1330, 1997). […] The specificities of the growth factors used were determined using a cell survival bioassay. […]

[2] = system: HMVE cells; assay: Boyden chamber cell migration assay; details: 6 h, VEGF 10 ng/ml, VEGF-C 500 ng/ml, VEGF-D 500 ng/ml, VEGF-C156S 3 μg/ml
Procedure: FIG. 5. VEGFR-3 mediates endothelial cell migration. The migration of HMVE cells in the presence of different VEGFs in a Boyden chamber assay. […] Data represent mean values from three independent experiments (mean±s.d.). The growth factor concentrations used are: VEGF 10 ng/ml, VEGF-C 500 ng/ml, VEGF-D 500 ng/ml and VEGF-C156S 3 μg/ml.
Cell migration assay. Migration assays were performed in a 48-well chemotaxis Boyden chamber (Neuroprobe Inc.). Eight micron Nucleopore polycarbonate filters (Corning) were coated with 100 μg/ml of collagen type I (Upstate Biotechnology) overnight at +4° C. and air dried. The filters were placed over the lower chamber wells containing the growth factors in serum-free growth medium supplemented with 0.2% BSA. For blocking experiments, VEGF and VEGF-C156S were preincubated with a ten-fold molar excess of soluble human VEGFR-3 for 30 min. HMVE cells were suspended in the growth medium and 10,000 cells in 50 μl were added to each well in the upper chamber. The cells were allowed to migrate for 6 h at 37° C. after which the filter was fixed with cold methanol and stained with hematoxylin (Meyer). Non-migrated cells on the upper surface of the filter were removed by scraping with a cotton swab and the number of migrated cells was counted. The assays were run in quadruplicate and repeated with three different batches of HMVECs.

[3] = system: HMVE cells; assay: Serum starvation-induced apoptosis, cytoplasmic histone-associated DNA fragments (ELISA), non-sorted HMVE cells; details: non-sorted microvascular endothelial cells, serum-free 24 h, FIG. 2A
Excerpt: FIG. 2A-FIG. 2B. VEGFR-2 and VEGFR-3, but not VEGFR-1 activating ligands inhibit apoptosis of serum-deprived HMVE cells. Measurement of the cytoplasmic histone-associated DNA fragments (mono- and oligonucleosomes) in serum-starved HMVE cells consisting of two cell populations of blood vascular and lymphatic endothelial cells (FIG. 2A) or in the isolated cell populations after magnetic cell sorting using VEGFR-3 antibodies (FIG. 2B). The enrichment factor of cytoplasmic oligonucleosomes in the apoptotic cells grown for 24 h in serum-free medium (BSA) was chosen as 100 (%). Data represent mean values from three independent experiments (mean±s.d.). […] Analysis of endothelial cell apoptosis. For the apoptosis assay, 70,000 cells per well were seeded into 24-well plates. Treatments were done in duplicates and apoptosis was detected by measuring cytoplasmic histone-associated DNA fragments using the death detection ELISA PLUS kit (Roche, Indianapolis, Ind.). […] Annexin-V-FLUOS (Roche, Indianapolis, Ind.) was used to detect phosphatidylserine on the apoptotic cells by fluorescence microscopy according to the instructions of the manufacturer. The simultaneous staining with propidium iodide (1 μg/ml) was used for discriminating possible necrotic cells.

Row | Molecule | survival of VEGFR-2/EpoR expressing cells [1] | stimulation of HMVE cell migration [2] | protection from starvation induced DNA degradation (cytoplasmic histone-associated DNA fragments) [3]
1 | VEGF | able to support the survival of the VEGFR-2/EpoR expressing cells | ten-fold stimulation of cell migration | able to protect microvascular endothelial cells from starvation induced DNA degradation
2 | VEGF-C156S: VEGFR-3 specific mutant form of VEGF-C, cysteine 156 changed into serine; recombinant human (Thr103 to Ile225) (protein, UniProt P49767 103-225, looked up, variant C156S) TEETIKFAAAHYNTEILKSIDNEWRKTQCMPREVCIDVGKEFGVATNTFFKPPSVSVYRCGGCCNSEGLQCMNTSTSYLSKTLFEITVPLSQGPKPVTISFANHTSCRCMSKLDVYRQVHSII | did not affect the survival of these cells | induced the migration of HMVE cells | able to protect microvascular endothelial cells from starvation induced DNA degradation
